# Data published in patent publication US4372971A, “Heterocyclic prostaglandin type compounds, medicaments containing them and processes for the preparation and use of these heterocyclic compounds and medicaments” (priority 1980, dated 1983).
# Structures can show the parent of a compound that is named as a salt. Where two headings read alike, the source gives them in different places.
# How the values were obtained:
# [1] = test system: smooth muscle of the intestine and uterus; conditions: cited from earlier work; for Smooth muscle contraction: intestine and uterus
# [2] = test system: blood pressure; test: Blood pressure lowering in conscious, spontaneous hypertensive rats; assay type: in vivo, rat; conditions: for Relative blood pressure lowering activity: relative to 5,6-dihydroprostacyclin = 1.0; for Effect in relation to maximum effect, 10 min. after administration (blood pressure lowering) / Effect in relation to maximum effect, 30 min. after administration (blood pressure lowering): maximum effect = 100%
# Source text: (§1) Surprising for the compounds according to the invention is the relation of their blood platelet aggregation inhibiting effect to their blood pressure lowering activity.
# Relative blood pressure lowering activity in
# conscious, spontaneous hypertensive rats (measurement
# via in-dwelling catheter; intravenous administration
# of the test compounds; the ED20 for 5,6-dihydroprosta-
# cyclin under these experimental conditions is 0.005
# Duration of the blood pressure lowering effect
# in conscious, spontaneous hypertensive rats (intra-
# [3] = test system: isolated rat colon; test: Contraction inducing activity on isolated rat colon; conditions: Prostaglandin F2α = 100%
# Source text: (§2) Relative contraction inducing activities
# (b) tests on isolated rat colon
# [4] = test system: platelet aggregation versus blood pressure; test: Index of selectivity: platelet aggregation inhibition versus blood pressure lowering (from Tables 1b and 1c); assay type: in vivo, rat; conditions: for Index of selectivity: in comparison to 5,6-dihydroprostacyclin, calculated from Tables 1b and 1c
# Source text: as §1
# in comparison to 5,6-dihydroprostacyclin (calculated
# [5] = test system: ADP induced fall in platelet count; test: ADP induced fall in platelet count in-vivo in narcotized rats; design: species or system rat; conditions: for Maximum effect % Aggregation inhibition / Relative activity on the ADP induced fall in platelet count in-vivo: narcotized rats; for Effect in relation to maximum effect, 10 min. after administration (aggregation inhibition) / Effect in relation to maximum effect, 30 min. after administration (aggregation inhibition): maximum effect = 100%; for Relative activity on the ADP induced fall in platelet count in-vivo: relative to 5,6-dihydroprostacyclin = 1.0
# Protocol: as §1
# Relative activity on the ADP induced fall
# in platelet count in-vivo in narcotized rats (urethane
# narcosis; intravenous administration of the test
# compounds; the ED50 for 5,6-dihydroprostacyclin under
# these experimental conditions is 0.0114 mg/kg):
# Duration of the platelet aggregation inhibiting
# effect in-vivo (measured with the model of ADP induced
# fall in platelet count in narcotized rats on intra-
# venous administration of the test compounds)
# [6] = test system: isolated rat uterus; test: Contraction inducing activity on isolated rat uterus; conditions: Prostaglandin F2α = 100%
# Source text: as §2
# (a) tests on isolated rat uterus
# [7] = test system: human thrombocytes; test: Inhibition of arachidonic acid induced aggregation of human thrombocytes in-vitro; assay type: cell-based; conditions: for Relative activity against the aggregation of human thrombocytes induced by arachidonic acid: relative to 5,6-dihydroprostacyclin = 1.0
# Source text: Relative activity against the aggregation
# of human thrombocytes induced by arachidonic acid
# in-vitro (the IC50, i.e., the concentration causing
# under the experimental conditions in 50% of the cases
# inhibition of the platelet aggregation for 5,6-di-
# [8] = Chemical stability; assay type: physicochemical
# [9] = background; cited from earlier work
# [10] = test system: platelet aggregation versus blood pressure; conditions: background; cited from earlier work
# [11] = test system: ADP induced fall in platelet count; conditions: background statement; also blood pressure lowering; cited from earlier work
# [12] = conscious spontaneous hypertensive rats, intravenous
compound,measurement,setting,value
CCCCC[C@H](O)/C=C/[C@H]1[C@H](O)CC(=O)[C@@H]1C/C=C\CCCC(=O)O [PGE2],Side effects in-vivo,[1]; administered in-vivo,may induce diarrhea and abortion
same,Smooth muscle contraction,[1],cause contraction of the smooth muscle of the intestine and uterus
"CCCCC[C@](C)(O)/C=C/[C@@H]1[C@H]2C/C(=C/c3cccc(C(=O)O)c3)O[C@H]2C[C@H]1O [Example 1e)i), Sodium salt of [(5Z, 13E, 9α, 11α, 15S)-2,3,4-trinor-1,5-inter-m-phenylene-6,9-epoxy-11,15-dihydroxy-15-methyl]-prosta-5,13-dienoic acid]",Relative blood pressure lowering activity,[2]; [12],0.1
same,Relative contraction inducing activity,[3],0.002%
same,Index of selectivity,[4],13.0
same,Maximum effect % Aggregation inhibition,[5]; 1.0 mg/kg intravenous,72.7%
same,"Effect in relation to maximum effect, 10 min. after administration (aggregation inhibition)",[5]; 1.0 mg/kg intravenous,69.3%
same,"Effect in relation to maximum effect, 30 min. after administration (aggregation inhibition)",[5]; 1.0 mg/kg intravenous,41.3%
same,Relative activity on the ADP induced fall in platelet count in-vivo,[5]; intravenous,1.3
same,Relative contraction inducing activity,[6],0.58%
same,Relative activity against the aggregation of human thrombocytes induced by arachidonic acid,[7]; in-vitro,0.86
"CCCCC[C@H](O)/C=C/[C@@H]1[C@H]2C/C(=C\c3cccc(C(=O)O)c3)O[C@H]2C[C@H]1O [Example 2a, Sodium salt of [(5E, 13E, 9α, 11α, 15S)-2,3,4-trinor-1,5-inter-m-phenylene-6,9-epoxy-11,15-dihydroxy]-prosta-5,13-dienoic acid]",Relative activity against the aggregation of human thrombocytes induced by arachidonic acid,[7]; in-vitro,1.2
"CCCCC[C@H](O)/C=C/[C@@H]1[C@H]2C/C(=C/c3cccc(C(=O)O)c3)O[C@H]2C[C@H]1O [Example 2b, Sodium salt of [(5Z, 13E, 9α, 11α,15S)-2,3,4-trinor-1,5-inter-m-phenylene-6,9-epoxy-11,15-dihydroxy]prosta-5,13-dienoic acid]",Relative activity against the aggregation of human thrombocytes induced by arachidonic acid,[7]; in-vitro,1.2
"CCCCC[C@](C)(O)/C=C/[C@@H]1[C@H]2C/C(=C\c3cccc(C(=O)O)c3)O[C@H]2C[C@H]1O [1e)ii), Sodium salt of [(5E, 13E, 9α, 11α, 15S)-2,3,4-trinor-1,5-inter-m-phenylene-6,9-epoxy-11,15-dihydroxy-15-methyl]-prosta-5,13-dienoic acid]",Relative blood pressure lowering activity,[2]; [12],0.014
same,Index of selectivity,[4],69.3
same,Relative activity on the ADP induced fall in platelet count in-vivo,[5]; intravenous,0.97
same,Relative activity against the aggregation of human thrombocytes induced by arachidonic acid,[7]; in-vitro,0.25
"O=C(O)c1cccc(/C=C2/C[C@@H]3[C@@H](/C=C/[C@@H](O)C4CCCCC4)[C@H](O)C[C@@H]3O2)c1 [Example 3b, Sodium salt of [(5Z, 13E, 9α, 11α, 15S)-2,3,4-trinor-1,5-inter-m-phenylene-6,9-epoxy-11,15-dihydroxy-15-cyclohexyl-16,17,18,19,20-pentanor]-prosta-5,13-dienoic acid]",Maximum effect % Blood pressure lowering,[2]; 0.1 mg/kg intravenous,23%
same,"Effect in relation to maximum effect, 10 min. after administration (blood pressure lowering)",[2]; 0.1 mg/kg intravenous,87.0%
same,"Effect in relation to maximum effect, 30 min. after administration (blood pressure lowering)",[2]; 0.1 mg/kg intravenous,39.1%
same,Relative blood pressure lowering activity,[2]; [12],0.25
same,Index of selectivity,[4],20.0
same,Maximum effect % Aggregation inhibition,[5]; 0.1 mg/kg intravenous,72.5%
same,"Effect in relation to maximum effect, 10 min. after administration (aggregation inhibition)",[5]; 0.1 mg/kg intravenous,62.6%
same,"Effect in relation to maximum effect, 30 min. after administration (aggregation inhibition)",[5]; 0.1 mg/kg intravenous,66.3%
same,"Activity compared with 5,6-dihydroprostacyclin, in-vivo",[5]; in-vivo (Table 1b),"several times more active than 5,6-dihydroprostacyclin"
same,Relative activity on the ADP induced fall in platelet count in-vivo,[5]; intravenous,5.0
same,"Activity compared with 5,6-dihydroprostacyclin, in-vitro",[7]; in-vitro (Table 1a),"several times more active than 5,6-dihydroprostacyclin"
same,Relative activity against the aggregation of human thrombocytes induced by arachidonic acid,[7]; in-vitro,18.0
"CCCCCC(O)C=CC1C(O)CC2OC(CCCCC(=O)O)CC21 (stereo not shown) [5,6-Dihydroprostacyclin, 5,6-dihydroprostacyclin, reference compound]",Maximum effect % Blood pressure lowering,[2]; 0.0215 mg/kg intravenous,28%
same,"Effect in relation to maximum effect, 10 min. after administration (blood pressure lowering)",[2]; 0.0215 mg/kg intravenous,7.1%
same,"Effect in relation to maximum effect, 30 min. after administration (blood pressure lowering)",[2]; 0.0215 mg/kg intravenous,0%
same,"ED20, blood pressure lowering","[2]; conscious spontaneous hypertensive rats, intravenous, in-dwelling catheter",5 µg/kg
same,Relative blood pressure lowering activity,[2]; [12],1.0
same,Relative contraction inducing activity,[3],23.8%
same,Index of selectivity,[4],1.0
same,Relation of platelet aggregation inhibiting to blood pressure lowering dosage,"[4]; rat, in vivo",produces both these effects at the same dosage range
same,Chemical stability,[8],chemically stable
same,Maximum effect % Aggregation inhibition,[5]; 0.1 mg/kg intravenous,62.4%
same,"Effect in relation to maximum effect, 10 min. after administration (aggregation inhibition)",[5]; 0.1 mg/kg intravenous,33.8%
same,"Effect in relation to maximum effect, 30 min. after administration (aggregation inhibition)",[5]; 0.1 mg/kg intravenous,0%
same,Duration of aggregation inhibiting and blood pressure lowering activities,[5]; also blood pressure lowering,only for a short time
same,"ED50, ADP induced fall in platelet count","[5]; narcotized rats (urethane), intravenous",11.4 µg/kg
same,Relative activity on the ADP induced fall in platelet count in-vivo,[5]; intravenous,1.0
same,Relative contraction inducing activity,[6],26.1%
same,IC50,"[7]; human thrombocytes, induced by arachidonic acid, in-vitro, read-out: IC50, inhibition of platelet aggregation",180 nM
same,Relative activity against the aggregation of human thrombocytes induced by arachidonic acid,[7]; in-vitro,1.0
"CCCCC[C@H](O)/C=C/[C@@H]1[C@H]2C/C(=C/CCCC(=O)O)O[C@H]2C[C@H]1O [Prostacyclin, prostacyclin]",Stability,[9],not as stable as would be desirable
same,Relation of platelet aggregation inhibiting to blood pressure lowering dosage,[10],exhibited at generally the same dosage level
same,Duration of aggregation inhibiting and blood pressure lowering activities,[11],only for a short time
CCCCC[C@H](O)/C=C/[C@@H]1[C@@H](C/C=C\CCCC(=O)O)[C@@H](O)C[C@H]1O [Prostaglandin F2α],Relative contraction inducing activity,[3],100%
same,Side effects in-vivo,[1],may induce diarrhea and abortion
same,Smooth muscle contraction,[1],cause contraction of the smooth muscle of the intestine and uterus
same,Relative contraction inducing activity,[6],100%
"CCCCC(CC)[C@H](O)/C=C/[C@@H]1[C@H]2C/C(=C/c3cccc(C(=O)O)c3)O[C@H]2C[C@H]1O (stereo partly drawn) [Example 4b, Sodium salt of [(5Z, 13E, 9α, 11α, 15S, 16RS)-2,3,4-trinor-1,5-inter-m-phenylene-6,9-epoxy-11,15-dihydroxy-16-ethyl]-prosta-5,13-dienoic acid]",Maximum effect % Blood pressure lowering,[2]; 1.0 mg/kg intravenous,22%
same,"Effect in relation to maximum effect, 10 min. after administration (blood pressure lowering)",[2]; 1.0 mg/kg intravenous,90.9%
same,"Effect in relation to maximum effect, 30 min. after administration (blood pressure lowering)",[2]; 1.0 mg/kg intravenous,68.2%
same,Relative blood pressure lowering activity,[2]; [12],0.012
same,Index of selectivity,[4],16.7
same,Maximum effect % Aggregation inhibition,[5]; 1.0 mg/kg intravenous,66.8%
same,"Effect in relation to maximum effect, 10 min. after administration (aggregation inhibition)",[5]; 1.0 mg/kg intravenous,45.4%
same,"Effect in relation to maximum effect, 30 min. after administration (aggregation inhibition)",[5]; 1.0 mg/kg intravenous,24.5%
same,Relative activity on the ADP induced fall in platelet count in-vivo,[5]; intravenous,0.2
same,Relative activity against the aggregation of human thrombocytes induced by arachidonic acid,[7]; in-vitro,0.31
